target: T1, Human NK1 Receptor (Homo sapiens, UniProt P25103); assay: In Vitro Human NK1 Receptor Binding Assay ([125I]Bolton-Hunter substance P displacement, IM9 cells); conditions: Human lymphoma IM9 cells, [125I]Bolton-Hunter substance P (0.05-0.1 nM), 50 min at 21° C.; Table 1; read-out: NK1 binding IC50
T1 construct: endogenous in cells; host or cells: Human lymphoma IM9 cells (whole cells)
How it was run: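 Test compounds competed with 0.05-0.1 nM [125I]Bolton-Hunter substance P for binding to intact IM9 cells over 50 min at 21° C, pH 7.4 buffer with MnCl2 and peptidase inhibitors. […] [Sar9, Met(O2)11] substance P gave non-specific binding. Bound counts were measured after filtration and fitted iteratively.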

T1 sequence (P25103 whole entry): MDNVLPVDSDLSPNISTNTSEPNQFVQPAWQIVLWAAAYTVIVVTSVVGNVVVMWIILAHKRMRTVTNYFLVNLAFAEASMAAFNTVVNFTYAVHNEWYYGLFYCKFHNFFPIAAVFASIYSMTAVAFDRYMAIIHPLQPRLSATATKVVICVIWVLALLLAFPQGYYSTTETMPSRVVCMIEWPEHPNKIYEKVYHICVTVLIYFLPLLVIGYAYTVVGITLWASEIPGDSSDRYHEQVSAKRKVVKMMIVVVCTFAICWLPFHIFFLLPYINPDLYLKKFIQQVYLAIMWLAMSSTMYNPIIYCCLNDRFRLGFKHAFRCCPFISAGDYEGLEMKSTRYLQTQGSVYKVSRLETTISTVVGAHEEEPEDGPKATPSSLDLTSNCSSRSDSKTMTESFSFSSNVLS

| IC50 | Compound |
| --- | --- |
| 6 nM | C[C@H](NC(=O)[C@@](C)(Cc1c[nH]c2ccccc12)NCc1cc2ccccc2o1)c1ccncc1 (relative stereo) [Example 3, 2-[(Benzofuran-2-ylmethyl)-amino]-3-(1H-indol-3-yl)-2-methyl-N-(1-pyridin-4-yl-ethyl)-propionamide, [R(R*,S*)]] |
| 3.3 nM | C[C@H](NC(=O)[C@@H](Cc1c[nH]c2ccccc12)NCCc1cc2ccccc2o1)c1ccccc1 (relative stereo) [Example 7, 2-(2-Benzofuran-2-yl-ethylamino)-3-(1H-indol-3-yl)-N-(1-phenyl-ethyl)-propionamide, [R-(R*,S*)]] |
| 112 nM | C[C@H](NC(=O)[C@@H](Cc1c[nH]c2ccccc12)NCc1nc2ccccc2[nH]1)c1ccccc1 (relative stereo) [Example 9, 2-[(1H-Benzoimidazol-2-ylmethyl)-amino]-3-(1H-indol-3-yl)-N-(1-phenyl-ethyl)-propionamide, [R-(R*,S*)]] |
| 46 nM | C[C@H](NC(=O)[C@@H](Cc1c[nH]c2ccccc12)NCc1cnc2ccccc2c1)c1ccccc1 (relative stereo) [Example 11, 3-(1H-Indol-3-yl)-N-(1-phenyl-ethyl)-2-[(quinolin-3-ylmethyl)-amino]-propionamide, [R-(R*,S*)]] |
| 4.4 nM | C[C@H](NC(=O)[C@@](C)(Cc1c[nH]c2ccccc12)NCc1cc2ccccc2o1)c1ccccc1 (relative stereo) [Example 18, 2-[(Benzofuran-2-ylmethyl)-amino]-3-(1H-indol-3-yl)-2-methyl-N-(1-phenyl-ethyl)-propionamide, [R-(R*,S*)]] |
| 58 nM | C[C@H](NC(=O)[C@@](C)(Cc1c[nH]c2ccccc12)NCc1coc2ccccc12)c1ccccc1 (relative stereo) [Example 19, 2-[(Benzofuran-3-ylmethyl)-amino]-3-(1H-indol-3-yl)-2-methyl-N-(1-phenyl-ethyl)-propionamide, [R-(R*,S*)]] |
| 815 nM | C[C@H](NC(=O)[C@@](C)(Cc1c[nH]c2ccccc12)NCc1ccc[nH]1)c1ccccc1 (relative stereo) [Example 20, 3-(1H-Indol-3-yl)-2-methyl-N-(1-phenyl-ethyl)-2-[(1H-pyrrol-2-ylmethyl)-amino]-propionamide, (R-(R*,S*)]] |
| 2.9 nM | C[C@H](NC(=O)[C@@](C)(Cc1c[nH]c2ccccc12)NC(=O)NCc1cc2ccccc2o1)c1ccccc1 (relative stereo) [Example 22, 2-(3-Benzofuran-2-ylmethyl-ureido)-3-(1H-indol-3-yl)-2-methyl-N-(1-phenyl-ethyl)-propionamide, [R-(R*,S*)]] |

same assay, conditions: Table 4; [125I]Bolton-Hunter substance P displacement, human IM9 cells; read-out: IC50 (nM) hNK1

| IC50 | Compound |
| --- | --- |
| 548 nM | CC(NC(=O)C(C)(Cc1c[nH]c2ccccc12)NCc1cccs1)c1ccccc1 (stereo not drawn) [compound 357, 3-(1H-Indol-3-yl)-2-methyl-N-(1-phenyl-ethyl)-2-[(thiophen-2-ylmethyl)-amino]-propionamide] |
| 598 nM | CC(NC(=O)C(C)(Cc1c[nH]c2ccccc12)NCc1ccsc1)c1ccccc1 (stereo not drawn) [compound 358, 3-(1H-Indol-3-yl)-2-methyl-N-(1-phenyl-ethyl)-2-[(thiophen-3-ylmethyl)-amino]-propionamide] |
| 3710 nM | CC(NC(=O)C(C)(Cc1c[nH]c2ccccc12)NCc1ccncc1)c1ccccc1 (stereo not drawn) [compound 359, 3-(1H-Indol-3-yl)-2-methyl-N-(1-phenyl-ethyl)-2-[(pyridin-4-ylmethyl)-amino]-propionamide] |

| Compound | IC50 |
| --- | --- |
| Toluene-4-sulfonic acid 3-{[2-(1H-indol-3-yl)-1-methyl-1-(1-phenyl-ethylcarbamoyl)-ethylamino]-methyl}-phenyl ester [compound 342] | 5090 nM |

same assay, conditions: Table 5; [125I]Bolton-Hunter substance P displacement, human IM9 cells; read-out: IC50 (nM) hNK1

| IC50 | Compound |
| --- | --- |
| 729 nM | CC(NC(=O)C(Cc1c[nH]c2ccccc12)NCc1ccccc1OCc1cccnc1)c1ccccc1 (stereo not drawn) [compound 361] |
| > 10000 nM | CC(NC(=O)C(Cc1c[nH]c2ccccc12)NCc1ccc(C=Cc2ccccc2)o1)c1ccccc1 (stereo not drawn) [compound 362] |
| 1250 nM | CC(NC(=O)C(Cc1c[nH]c2ccccc12)NCc1ccc(OCCCC(C)(C)C(=O)O)cc1)c1ccccc1 (stereo not drawn) [compound 364] |
| 5280 nM | CC(NC(=O)C(Cc1c[nH]c2ccccc12)NCC1CC=C(CCCC(C)(C)O)CC1)c1ccccc1 (stereo not drawn) [compound 365] |
| 4050 nM | CC(C)C=CCC1=CCC(CNC(Cc2c[nH]c3ccccc23)C(=O)NC(C)c2ccccc2)CC1 (stereo not drawn) [compound 366] |
| 236 nM | CCOC(=O)Nc1ccccc1CNC(Cc1c[nH]c2ccccc12)C(=O)NC(C)c1ccccc1 (stereo not drawn) [compound 367] |
| 2240 nM | CC(NC(=O)C(Cc1c[nH]c2ccccc12)NCc1ccc(N2CCOCC2)cc1Cl)c1ccccc1 (stereo not drawn) [compound 368] |
| 450 nM | CNS(=O)(=O)c1cc(Cl)ccc1CNC(Cc1c[nH]c2ccccc12)C(=O)NC(C)c1ccccc1 (stereo not drawn) [compound 369] |
| 534 nM | CC(NC(=O)C(Cc1c[nH]c2ccccc12)NCC(Cc1ccccc1)c1ccccc1)c1ccccc1 (stereo not drawn) [compound 370] |
| > 10000 nM | CC(NC(=O)C(Cc1c[nH]c2ccccc12)NCc1coc2ccccc2c1=O)c1ccccc1 (stereo not drawn) [compound 371] |
| > 10000 nM | CC(NC(=O)C(Cc1c[nH]c2ccccc12)NCC1CSc2c([nH]c3ccccc23)C1=O)c1ccccc1 (stereo not drawn) [compound 372] |
| 507 nM | Cc1c(-c2ccccc2)occ(CNC(Cc2c[nH]c3ccccc23)C(=O)NC(C)c2ccccc2)c1=O (stereo not drawn) [compound 373] |
| 1910 nM | COC(=O)c1ccc(CNC(Cc2c[nH]c3ccccc23)C(=O)NC(C)c2ccccc2)cc1 (stereo not drawn) [compound 374] |
| 165 nM | CCCc1nc(-n2cccc2)c(CNC(Cc2c[nH]c3ccccc23)C(=O)NC(C)c2ccccc2)[nH]1 (stereo not drawn) [compound 375] |
| > 10000 nM | CC(NC(=O)C(Cc1c[nH]c2ccccc12)NCC(=Cc1ccccc1)c1ccccc1)c1ccccc1 (stereo not drawn) [compound 376] |
| 593 nM | CC(NC(=O)C(Cc1c[nH]c2ccccc12)NCC=Cc1ccc2c(c1)OCO2)c1ccccc1 (stereo not drawn) [compound 377] |
| 932 nM | CC(NC(=O)C(Cc1c[nH]c2ccccc12)NCC=Cc1ccc(OCc2ccccc2)cc1)c1ccccc1 (stereo not drawn) [compound 378] |
| 587 nM | CC(NC(=O)C(Cc1c[nH]c2ccccc12)NCc1ccc(OCc2ccccc2)cc1)c1ccccc1 (stereo not drawn) [compound 379] |
| 500 nM | CC(NC(=O)C(Cc1c[nH]c2ccccc12)NCCCc1cccc2ccccc12)c1ccccc1 (stereo not drawn) [compound 380] |
| > 10000 nM | Cc1ccc(S(=O)(=O)Oc2cccc(CNC(Cc3c[nH]c4ccccc34)C(=O)NC(C)c3ccccc3)c2)cc1 (stereo not drawn) [compound 381] |
| > 10000 nM | CC(NC(=O)C(Cc1c[nH]c2ccccc12)NCc1cccc(OCc2ccccc2)c1)c1ccccc1 (stereo not drawn) [compound 382] |
| 252 nM | CSc1ccc(CNC(Cc2c[nH]c3ccccc23)C(=O)NC(C)c2ccccc2)cc1 (stereo not drawn) [compound 383] |

| IC50 | Compound |
| --- | --- |
| 2350 nM | CC(NC(=O)C(Cc1c[nH]c2ccccc12)NCc1ccc(Oc2ccccc2)cc1)c1ccccc1 (stereo not drawn) [compound 384] |
| 1460 nM | CC(NC(=O)C(Cc1c[nH]c2ccccc12)NCc1ccc(-c2ccccc2)cc1)c1ccccc1 (stereo not drawn) [compound 385] |
| 240 nM | CC(NC(=O)C(Cc1c[nH]c2ccccc12)NCc1ccc2c(c1)OCO2)c1ccccc1 (stereo not drawn) [compound 386] |
| 201 nM | CC(NC(=O)C(Cc1c[nH]c2ccccc12)NCc1ccccc1Sc1ccc(Cl)cc1)c1ccccc1 (stereo not drawn) [compound 387] |
| 2570 nM | CC=C(C)CCC=C(C)CNC(Cc1c[nH]c2ccccc12)C(=O)NC(C)c1ccccc1 (stereo not drawn) [compound 389] |
| 50 nM | CC(NC(=O)C(Cc1c[nH]c2ccccc12)NCc1ccc(-c2ccc([N+](=O)[O-])cc2)o1)c1ccccc1 (stereo not drawn) [compound 390] |
| 846 nM | CC(NC(=O)C(Cc1c[nH]c2ccccc12)NCc1ccc2c(c1)Cc1ccccc1-2)c1ccccc1 (stereo not drawn) [compound 391] |
| > 10000 nM | Cc1cc(CNC(Cc2c[nH]c3ccccc23)C(=O)NC(C)c2ccccc2)c(C)n1-c1ccccc1 (stereo not drawn) [compound 392] |
| 802 nM | CC(NC(=O)C(Cc1c[nH]c2ccccc12)NCc1cccnc1)c1ccccc1 (stereo not drawn) [compound 393] |
| 158 nM | CC(NC(=O)C(Cc1c[nH]c2ccccc12)NCc1ccc2ccccc2c1)c1ccccc1 (stereo not drawn) [compound 394] |
| > 10000 nM | CC(NC(=O)C(Cc1c[nH]c2ccccc12)NCc1ccccn1)c1ccccc1 (stereo not drawn) [compound 395] |
| 1070 nM | CC(NC(=O)C(Cc1c[nH]c2ccccc12)NCc1cccs1)c1ccccc1 (stereo not drawn) [compound 396] |
| > 10000 nM | COc1ccc(CNC(Cc2c[nH]c3ccccc23)C(=O)NC(C)c2ccccc2)cc1OC (stereo not drawn) [compound 397] |
| > 10000 nM | CC(NC(=O)C(Cc1c[nH]c2ccccc12)NCc1cc(C(F)(F)F)cc(C(F)(F)F)c1)c1ccccc1 (stereo not drawn) [compound 398] |
| 140 nM | CC(NC(=O)C(Cc1c[nH]c2ccccc12)NCc1cc(F)cc(F)c1)c1ccccc1 (stereo not drawn) [compound 399] |
| 13 nM | CC(NC(=O)C(Cc1c[nH]c2ccccc12)NCc1cccc(Cl)c1)c1ccccc1 (stereo not drawn) [compound 400] |
| 39 nM | CC(NC(=O)C(Cc1c[nH]c2ccccc12)NCc1cccc(F)c1)c1ccccc1 (stereo not drawn) [compound 401] |
| 881 nM | CC(NC(=O)C(Cc1c[nH]c2ccccc12)NCc1ccoc1)c1ccccc1 (stereo not drawn) [compound 402] |
| 3910 nM | CC(NC(=O)C(Cc1c[nH]c2ccccc12)NCCCc1ccccc1)c1ccccc1 (stereo not drawn) [compound 403] |
| 2390 nM | CC(NC(=O)C(Cc1c[nH]c2ccccc12)NCc1ccsc1)c1ccccc1 (stereo not drawn) [compound 404] |
| 429 nM | CC(NC(=O)C(Cc1c[nH]c2ccccc12)NCc1ccco1)c1ccccc1 (stereo not drawn) [compound 405] |

test system: not given; assay: not given; conditions: not given

| melting point | Compound |
| --- | --- |
| 66 to 69 °C | C[C@H](NC(=O)[C@@](C)(Cc1c[nH]c2ccccc12)NCc1cc2ccccc2o1)c1ccncc1 (relative stereo) [Example 3, 2-[(Benzofuran-2-ylmethyl)-amino]-3-(1H-indol-3-yl)-2-methyl-N-(1-pyridin-4-yl-ethyl)-propionamide, [R(R*,S*)]] |
| 105 to 107 °C | C[C@H](NC(=O)[C@@H](Cc1c[nH]c2ccccc12)NCCc1cc2ccccc2o1)c1ccccc1 (relative stereo) [Example 7, 2-(2-Benzofuran-2-yl-ethylamino)-3-(1H-indol-3-yl)-N-(1-phenyl-ethyl)-propionamide, [R-(R*,S*)]] |
| 148 to 152.5 °C | C[C@H](NC(=O)[C@@H](Cc1c[nH]c2ccccc12)NCc1nc2ccccc2[nH]1)c1ccccc1 (relative stereo) [Example 9, 2-[(1H-Benzoimidazol-2-ylmethyl)-amino]-3-(1H-indol-3-yl)-N-(1-phenyl-ethyl)-propionamide, [R-(R*,S*)]] |
| 161 to 163 °C | C[C@H](NC(=O)[C@@H](Cc1c[nH]c2ccccc12)NCc1cnc2ccccc2c1)c1ccccc1 (relative stereo) [Example 11, 3-(1H-Indol-3-yl)-N-(1-phenyl-ethyl)-2-[(quinolin-3-ylmethyl)-amino]-propionamide, [R-(R*,S*)]] |
| 118 to 121 °C | C[C@H](NC(=O)[C@@](C)(Cc1c[nH]c2ccccc12)NCc1cc2ccccc2o1)c1ccccc1 (relative stereo) [Example 18, 2-[(Benzofuran-2-ylmethyl)-amino]-3-(1H-indol-3-yl)-2-methyl-N-(1-phenyl-ethyl)-propionamide, [R-(R*,S*)]] |
| 104 to 106 °C | C[C@H](NC(=O)[C@@](C)(Cc1c[nH]c2ccccc12)NCc1coc2ccccc12)c1ccccc1 (relative stereo) [Example 19, 2-[(Benzofuran-3-ylmethyl)-amino]-3-(1H-indol-3-yl)-2-methyl-N-(1-phenyl-ethyl)-propionamide, [R-(R*,S*)]] |
| 123 to 133 °C | C[C@H](NC(=O)[C@@](C)(Cc1c[nH]c2ccccc12)NCc1ccc[nH]1)c1ccccc1 (relative stereo) [Example 20, 3-(1H-Indol-3-yl)-2-methyl-N-(1-phenyl-ethyl)-2-[(1H-pyrrol-2-ylmethyl)-amino]-propionamide, (R-(R*,S*)]] |
| 176 to 178 °C | C[C@H](NC(=O)[C@@](C)(Cc1c[nH]c2ccccc12)NC(=O)NCc1cc2ccccc2o1)c1ccccc1 (relative stereo) [Example 22, 2-(3-Benzofuran-2-ylmethyl-ureido)-3-(1H-indol-3-yl)-2-methyl-N-(1-phenyl-ethyl)-propionamide, [R-(R*,S*)]] |
